From ChEMBL document CHEMBL5442219 come the findings set out here.

What is called inhibition is the relative decrease from the control value, in per cent.

Common to all, as to conditions: Compound concentration 10 µM
Assay [1] addresses T1, Alpha-2C adrenergic receptor (Homo sapiens) (UniProt P18825).
T1 sequence (whole entry): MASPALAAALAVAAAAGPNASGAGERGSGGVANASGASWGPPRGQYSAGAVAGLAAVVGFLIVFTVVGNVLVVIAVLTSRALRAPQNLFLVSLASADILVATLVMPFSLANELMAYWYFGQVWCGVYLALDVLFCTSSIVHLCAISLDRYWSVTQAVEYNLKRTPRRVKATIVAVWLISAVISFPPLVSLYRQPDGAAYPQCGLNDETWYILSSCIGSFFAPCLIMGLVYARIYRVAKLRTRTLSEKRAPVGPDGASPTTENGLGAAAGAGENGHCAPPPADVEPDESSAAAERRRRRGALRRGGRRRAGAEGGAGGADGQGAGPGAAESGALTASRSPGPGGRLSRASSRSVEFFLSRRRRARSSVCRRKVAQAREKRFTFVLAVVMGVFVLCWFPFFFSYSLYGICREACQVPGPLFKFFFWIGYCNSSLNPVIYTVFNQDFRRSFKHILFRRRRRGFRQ
Description: PDSP Primary Binding target: ADRA2C - Compounds are tested at 10 uM concentration, plate are incubated at room temperature in the dark for 90 minutes. Reaction are stopped by vacuum filtration onto 0.3% polyethyleneimine soaked filter mats using Filtermate harvester. Scintilation cocktail is then melted onto microwave-dried filters on a hot plate and the radio activity is counted in Microbia counter.

Assay [2] concerns the target 5-hydroxytryptamine receptor 5A (Homo sapiens) (UniProt P47898).
Description: PDSP Primary Binding target: HTR5A - Compounds are tested at 10 uM concentration, plate are incubated at room temperature in the dark for 90 minutes. Reaction are stopped by vacuum filtration onto 0.3% polyethyleneimine soaked filter mats using Filtermate harvester. Scintilation cocktail is then melted onto microwave-dried filters on a hot plate and the radio activity is counted in Microbia counter.
For assay [3], the target named is Sodium-dependent serotonin transporter (Homo sapiens) (UniProt P31645).
Chain of Sodium-dependent serotonin transporter (Homo sapiens) (P31645 whole entry, looked up): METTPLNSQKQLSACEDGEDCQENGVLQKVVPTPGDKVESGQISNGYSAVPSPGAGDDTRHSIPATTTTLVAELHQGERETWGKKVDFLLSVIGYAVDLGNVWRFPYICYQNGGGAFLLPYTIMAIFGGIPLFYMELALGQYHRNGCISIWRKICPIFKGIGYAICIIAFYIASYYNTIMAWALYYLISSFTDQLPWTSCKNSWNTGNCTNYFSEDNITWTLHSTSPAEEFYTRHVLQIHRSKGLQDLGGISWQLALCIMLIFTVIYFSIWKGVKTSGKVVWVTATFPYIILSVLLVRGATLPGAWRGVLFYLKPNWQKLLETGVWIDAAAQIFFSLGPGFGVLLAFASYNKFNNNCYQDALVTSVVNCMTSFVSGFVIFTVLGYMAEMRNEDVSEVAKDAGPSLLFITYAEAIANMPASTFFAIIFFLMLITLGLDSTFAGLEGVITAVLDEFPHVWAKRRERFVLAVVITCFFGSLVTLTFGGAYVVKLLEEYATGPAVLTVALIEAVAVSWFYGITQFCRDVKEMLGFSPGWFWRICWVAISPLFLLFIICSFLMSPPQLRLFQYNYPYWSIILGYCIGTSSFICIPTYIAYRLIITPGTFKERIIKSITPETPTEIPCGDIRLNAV
Description: PDSP Primary Binding target: SLC6A4 - Compounds are tested at 10 uM concentration, plate are incubated at room temperature in the dark for 90 minutes. Reaction are stopped by vacuum filtration onto 0.3% polyethyleneimine soaked filter mats using Filtermate harvester. Scintilation cocktail is then melted onto microwave-dried filters on a hot plate and the radio activity is counted in Microbia counter.
The target in assay [4] is T2, Muscarinic acetylcholine receptor M5 (Homo sapiens) (UniProt P08912).
T2 sequence (whole entry): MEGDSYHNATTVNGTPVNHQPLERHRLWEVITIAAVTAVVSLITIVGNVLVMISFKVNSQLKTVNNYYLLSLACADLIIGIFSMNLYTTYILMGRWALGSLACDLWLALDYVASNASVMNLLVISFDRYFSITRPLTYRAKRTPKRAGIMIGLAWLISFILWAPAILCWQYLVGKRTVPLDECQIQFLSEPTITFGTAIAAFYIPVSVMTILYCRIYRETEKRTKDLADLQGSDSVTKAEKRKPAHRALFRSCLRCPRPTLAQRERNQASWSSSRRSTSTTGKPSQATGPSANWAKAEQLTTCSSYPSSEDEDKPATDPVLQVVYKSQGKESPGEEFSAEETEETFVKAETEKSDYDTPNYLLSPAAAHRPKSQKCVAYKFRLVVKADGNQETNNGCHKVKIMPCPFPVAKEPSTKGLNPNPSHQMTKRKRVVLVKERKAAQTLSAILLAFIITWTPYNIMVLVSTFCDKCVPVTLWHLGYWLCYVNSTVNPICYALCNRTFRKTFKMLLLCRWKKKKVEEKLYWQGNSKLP
Description: PDSP Primary Binding target: CHRM5 - Compounds are tested at 10 uM concentration, plate are incubated at room temperature in the dark for 90 minutes. Reaction are stopped by vacuum filtration onto 0.3% polyethyleneimine soaked filter mats using Filtermate harvester. Scintilation cocktail is then melted onto microwave-dried filters on a hot plate and the radio activity is counted in Microbia counter.

Assay [5] has as its target Beta-1 adrenergic receptor (Homo sapiens) (UniProt P08588).
Description: PDSP Primary Binding target: ADRB1 - Compounds are tested at 10 uM concentration, plate are incubated at room temperature in the dark for 90 minutes. Reaction are stopped by vacuum filtration onto 0.3% polyethyleneimine soaked filter mats using Filtermate harvester. Scintilation cocktail is then melted onto microwave-dried filters on a hot plate and the radio activity is counted in Microbia counter.
For assay [6], the target named is Translocator protein (Homo sapiens) (UniProt P30536).
Chain of Translocator protein (Homo sapiens) (P30536 whole entry): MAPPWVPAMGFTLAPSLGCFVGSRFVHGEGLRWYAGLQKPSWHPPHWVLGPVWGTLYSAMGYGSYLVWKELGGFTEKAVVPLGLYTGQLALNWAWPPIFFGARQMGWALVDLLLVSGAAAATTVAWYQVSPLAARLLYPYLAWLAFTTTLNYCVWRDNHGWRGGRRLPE
Description: PDSP Primary Binding target: TSPO - Compounds are tested at 10 uM concentration, plate are incubated at room temperature in the dark for 90 minutes. Reaction are stopped by vacuum filtration onto 0.3% polyethyleneimine soaked filter mats using Filtermate harvester. Scintilation cocktail is then melted onto microwave-dried filters on a hot plate and the radio activity is counted in Microbia counter.
The target of assay [7] is Histamine H3 receptor (Homo sapiens) (UniProt Q9Y5N1).
Chain of Histamine H3 receptor (Homo sapiens) (Q9Y5N1 whole entry): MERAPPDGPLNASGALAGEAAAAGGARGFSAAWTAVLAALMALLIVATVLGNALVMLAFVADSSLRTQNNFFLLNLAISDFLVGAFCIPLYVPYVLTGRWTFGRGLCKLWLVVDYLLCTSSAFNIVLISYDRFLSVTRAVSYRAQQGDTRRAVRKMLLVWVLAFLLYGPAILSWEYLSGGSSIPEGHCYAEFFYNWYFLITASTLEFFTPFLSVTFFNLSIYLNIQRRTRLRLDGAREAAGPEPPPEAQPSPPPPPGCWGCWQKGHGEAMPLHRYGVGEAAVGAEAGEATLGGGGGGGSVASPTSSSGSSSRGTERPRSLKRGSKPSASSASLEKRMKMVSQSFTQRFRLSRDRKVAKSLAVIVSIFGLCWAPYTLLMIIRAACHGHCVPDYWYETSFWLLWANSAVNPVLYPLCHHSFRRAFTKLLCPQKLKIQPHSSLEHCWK
Description: PDSP Primary Binding target: HRH3 - Compounds are tested at 10 uM concentration, plate are incubated at room temperature in the dark for 90 minutes. Reaction are stopped by vacuum filtration onto 0.3% polyethyleneimine soaked filter mats using Filtermate harvester. Scintilation cocktail is then melted onto microwave-dried filters on a hot plate and the radio activity is counted in Microbia counter.
In assay [8] the target is 5-hydroxytryptamine receptor 1E (Homo sapiens) (UniProt P28566).
Chain of 5-hydroxytryptamine receptor 1E (Homo sapiens) (P28566 whole entry): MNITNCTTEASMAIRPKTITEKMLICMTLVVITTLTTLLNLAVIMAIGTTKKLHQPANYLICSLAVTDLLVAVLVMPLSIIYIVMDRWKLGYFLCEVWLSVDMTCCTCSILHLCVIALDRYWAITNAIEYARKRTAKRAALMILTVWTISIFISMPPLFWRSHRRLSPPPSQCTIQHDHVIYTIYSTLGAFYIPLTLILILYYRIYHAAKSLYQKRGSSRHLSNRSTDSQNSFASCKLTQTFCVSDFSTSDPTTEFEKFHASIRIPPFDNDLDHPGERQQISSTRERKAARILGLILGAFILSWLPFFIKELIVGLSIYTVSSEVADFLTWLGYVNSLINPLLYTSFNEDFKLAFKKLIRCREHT
Description: PDSP Primary Binding target: HTR1E - Compounds are tested at 10 uM concentration, plate are incubated at room temperature in the dark for 90 minutes. Reaction are stopped by vacuum filtration onto 0.3% polyethyleneimine soaked filter mats using Filtermate harvester. Scintilation cocktail is then melted onto microwave-dried filters on a hot plate and the radio activity is counted in Microbia counter.
Assay [9] addresses Sodium-dependent noradrenaline transporter (Homo sapiens) (UniProt P23975).
Description: PDSP Primary Binding target: SLC6A2 - Compounds are tested at 10 uM concentration, plate are incubated at room temperature in the dark for 90 minutes. Reaction are stopped by vacuum filtration onto 0.3% polyethyleneimine soaked filter mats using Filtermate harvester. Scintilation cocktail is then melted onto microwave-dried filters on a hot plate and the radio activity is counted in Microbia counter.
The target in assay [10] is 5-hydroxytryptamine receptor 6 (Homo sapiens) (UniProt P50406).
Chain of 5-hydroxytryptamine receptor 6 (Homo sapiens) (P50406 whole entry): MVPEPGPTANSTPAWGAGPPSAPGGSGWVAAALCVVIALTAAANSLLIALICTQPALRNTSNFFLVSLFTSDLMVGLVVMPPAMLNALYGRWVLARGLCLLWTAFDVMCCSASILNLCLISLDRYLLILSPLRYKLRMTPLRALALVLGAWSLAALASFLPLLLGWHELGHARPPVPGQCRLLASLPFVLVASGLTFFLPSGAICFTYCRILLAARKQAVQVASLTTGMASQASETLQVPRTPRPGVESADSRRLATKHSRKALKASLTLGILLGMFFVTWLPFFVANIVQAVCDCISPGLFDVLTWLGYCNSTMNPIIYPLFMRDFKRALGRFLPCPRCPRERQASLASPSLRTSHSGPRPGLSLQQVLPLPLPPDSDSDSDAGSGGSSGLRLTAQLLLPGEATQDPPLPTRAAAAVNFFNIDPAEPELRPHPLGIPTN
Description: PDSP Primary Binding target: HTR6 - Compounds are tested at 10 uM concentration, plate are incubated at room temperature in the dark for 90 minutes. Reaction are stopped by vacuum filtration onto 0.3% polyethyleneimine soaked filter mats using Filtermate harvester. Scintilation cocktail is then melted onto microwave-dried filters on a hot plate and the radio activity is counted in Microbia counter.
Assay [11] deals with T3, Muscarinic acetylcholine receptor M4 (Homo sapiens) (UniProt P08173).
T3 sequence (whole entry): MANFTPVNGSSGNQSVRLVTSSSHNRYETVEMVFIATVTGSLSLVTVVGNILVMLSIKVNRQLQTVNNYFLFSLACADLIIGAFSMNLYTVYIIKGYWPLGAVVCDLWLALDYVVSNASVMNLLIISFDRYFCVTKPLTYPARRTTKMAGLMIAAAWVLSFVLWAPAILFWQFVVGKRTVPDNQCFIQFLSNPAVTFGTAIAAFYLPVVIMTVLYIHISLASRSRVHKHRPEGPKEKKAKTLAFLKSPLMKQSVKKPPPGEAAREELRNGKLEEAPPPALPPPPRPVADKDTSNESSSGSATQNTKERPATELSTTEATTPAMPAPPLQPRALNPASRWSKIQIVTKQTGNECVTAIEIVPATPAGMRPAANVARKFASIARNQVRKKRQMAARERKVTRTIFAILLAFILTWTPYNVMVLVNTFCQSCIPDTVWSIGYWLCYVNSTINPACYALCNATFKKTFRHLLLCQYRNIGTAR
Description: PDSP Primary Binding target: CHRM4 - Compounds are tested at 10 uM concentration, plate are incubated at room temperature in the dark for 90 minutes. Reaction are stopped by vacuum filtration onto 0.3% polyethyleneimine soaked filter mats using Filtermate harvester. Scintilation cocktail is then melted onto microwave-dried filters on a hot plate and the radio activity is counted in Microbia counter.

For assay [12], the target named is Sigma non-opioid intracellular receptor 1 (Homo sapiens) (UniProt Q99720).
Chain of Sigma non-opioid intracellular receptor 1 (Homo sapiens) (Q99720 whole entry): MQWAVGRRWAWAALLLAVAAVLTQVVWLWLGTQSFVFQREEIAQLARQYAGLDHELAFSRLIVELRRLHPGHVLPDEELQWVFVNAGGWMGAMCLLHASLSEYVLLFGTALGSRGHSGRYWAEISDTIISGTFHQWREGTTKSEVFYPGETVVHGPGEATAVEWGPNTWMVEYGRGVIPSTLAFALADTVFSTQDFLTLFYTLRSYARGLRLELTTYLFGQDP
Description: PDSP Primary Binding target: SIGMAR1 - Compounds are tested at 10 uM concentration, plate are incubated at room temperature in the dark for 90 minutes. Reaction are stopped by vacuum filtration onto 0.3% polyethyleneimine soaked filter mats using Filtermate harvester. Scintilation cocktail is then melted onto microwave-dried filters on a hot plate and the radio activity is counted in Microbia counter.
The target of assay [13] is T4, Alpha-2B adrenergic receptor (Homo sapiens) (UniProt P18089).
T4 sequence (whole entry): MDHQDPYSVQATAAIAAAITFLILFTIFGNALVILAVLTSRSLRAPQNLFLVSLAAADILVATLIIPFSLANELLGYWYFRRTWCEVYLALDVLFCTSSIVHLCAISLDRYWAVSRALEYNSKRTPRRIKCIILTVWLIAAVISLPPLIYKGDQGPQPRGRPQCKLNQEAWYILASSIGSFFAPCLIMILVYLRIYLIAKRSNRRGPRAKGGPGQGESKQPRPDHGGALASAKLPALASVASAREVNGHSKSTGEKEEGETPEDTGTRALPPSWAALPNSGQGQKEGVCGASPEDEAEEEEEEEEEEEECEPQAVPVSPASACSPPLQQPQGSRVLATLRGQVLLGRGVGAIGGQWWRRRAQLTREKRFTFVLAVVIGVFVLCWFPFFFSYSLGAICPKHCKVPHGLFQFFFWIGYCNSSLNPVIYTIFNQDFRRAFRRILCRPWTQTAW
Description: PDSP Primary Binding target: ADRA2B - Compounds are tested at 10 uM concentration, plate are incubated at room temperature in the dark for 90 minutes. Reaction are stopped by vacuum filtration onto 0.3% polyethyleneimine soaked filter mats using Filtermate harvester. Scintilation cocktail is then melted onto microwave-dried filters on a hot plate and the radio activity is counted in Microbia counter.

The target in assay [14] is T5, Muscarinic acetylcholine receptor M2 (Homo sapiens) (UniProt P08172).
T5 sequence (whole entry): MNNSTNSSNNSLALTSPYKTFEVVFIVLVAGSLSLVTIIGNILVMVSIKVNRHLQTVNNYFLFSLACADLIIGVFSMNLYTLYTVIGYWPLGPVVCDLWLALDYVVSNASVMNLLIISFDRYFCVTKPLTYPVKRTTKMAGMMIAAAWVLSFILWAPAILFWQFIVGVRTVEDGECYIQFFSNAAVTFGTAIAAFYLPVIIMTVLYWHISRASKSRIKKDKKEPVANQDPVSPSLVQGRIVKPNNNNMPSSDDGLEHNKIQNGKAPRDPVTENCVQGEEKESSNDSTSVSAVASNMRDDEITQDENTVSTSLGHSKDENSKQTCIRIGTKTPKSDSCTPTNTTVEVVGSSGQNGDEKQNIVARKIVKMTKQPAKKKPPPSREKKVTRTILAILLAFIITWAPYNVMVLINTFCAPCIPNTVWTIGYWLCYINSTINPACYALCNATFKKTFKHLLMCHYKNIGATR
Description: PDSP Primary Binding target: CHRM2 - Compounds are tested at 10 uM concentration, plate are incubated at room temperature in the dark for 90 minutes. Reaction are stopped by vacuum filtration onto 0.3% polyethyleneimine soaked filter mats using Filtermate harvester. Scintilation cocktail is then melted onto microwave-dried filters on a hot plate and the radio activity is counted in Microbia counter.

Chain of Sodium-dependent noradrenaline transporter (Homo sapiens) (P23975 whole entry): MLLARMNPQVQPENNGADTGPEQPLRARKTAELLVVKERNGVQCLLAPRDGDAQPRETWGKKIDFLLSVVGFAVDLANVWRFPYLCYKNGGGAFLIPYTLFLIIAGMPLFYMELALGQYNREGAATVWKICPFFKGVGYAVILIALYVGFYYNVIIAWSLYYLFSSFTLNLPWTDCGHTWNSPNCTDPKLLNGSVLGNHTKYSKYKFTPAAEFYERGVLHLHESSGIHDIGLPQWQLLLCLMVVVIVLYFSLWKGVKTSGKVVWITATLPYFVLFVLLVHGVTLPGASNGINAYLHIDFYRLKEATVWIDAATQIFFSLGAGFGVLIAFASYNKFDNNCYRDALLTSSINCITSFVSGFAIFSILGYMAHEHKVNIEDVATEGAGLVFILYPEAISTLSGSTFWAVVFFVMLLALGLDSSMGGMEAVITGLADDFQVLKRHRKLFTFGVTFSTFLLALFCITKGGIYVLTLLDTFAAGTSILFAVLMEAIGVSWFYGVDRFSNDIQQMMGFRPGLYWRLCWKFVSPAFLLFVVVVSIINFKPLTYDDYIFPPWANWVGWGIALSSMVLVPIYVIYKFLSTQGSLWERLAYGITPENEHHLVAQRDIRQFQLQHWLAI
Chain of Beta-1 adrenergic receptor (Homo sapiens) (P08588 whole entry, looked up): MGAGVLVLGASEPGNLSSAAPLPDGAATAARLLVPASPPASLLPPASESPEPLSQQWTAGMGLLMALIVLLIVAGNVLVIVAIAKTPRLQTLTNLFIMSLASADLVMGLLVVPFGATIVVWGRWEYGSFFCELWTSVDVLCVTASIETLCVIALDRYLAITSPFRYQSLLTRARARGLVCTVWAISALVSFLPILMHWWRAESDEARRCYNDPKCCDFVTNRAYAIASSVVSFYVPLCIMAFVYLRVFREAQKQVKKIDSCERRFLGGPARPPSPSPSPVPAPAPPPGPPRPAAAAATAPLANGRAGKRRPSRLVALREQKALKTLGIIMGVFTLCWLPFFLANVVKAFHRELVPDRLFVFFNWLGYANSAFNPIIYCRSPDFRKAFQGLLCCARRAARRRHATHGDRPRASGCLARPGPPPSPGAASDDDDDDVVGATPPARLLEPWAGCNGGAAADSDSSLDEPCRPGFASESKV
Chain of 5-hydroxytryptamine receptor 5A (Homo sapiens) (P47898 whole entry): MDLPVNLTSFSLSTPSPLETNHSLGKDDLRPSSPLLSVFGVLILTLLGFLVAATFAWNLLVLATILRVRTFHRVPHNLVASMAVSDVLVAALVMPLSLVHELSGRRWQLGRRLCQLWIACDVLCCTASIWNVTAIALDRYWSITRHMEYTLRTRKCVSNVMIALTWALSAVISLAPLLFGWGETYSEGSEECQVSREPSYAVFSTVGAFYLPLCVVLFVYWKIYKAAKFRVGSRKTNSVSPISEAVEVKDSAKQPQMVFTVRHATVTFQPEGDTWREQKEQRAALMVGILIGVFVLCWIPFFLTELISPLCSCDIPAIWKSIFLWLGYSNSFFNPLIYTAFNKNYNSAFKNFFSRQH

Take `O=c1ccn([C@@H]2O[C@H](COP(=O)(O)OP(=O)(O)OP(=O)(O)O)[C@@H](O)[C@H]2O)c(=O)[nH]1`: the inhibition in [1] is 6.85%; in assay [2], 16.9%; in assay [3], 13.8%; in assay [4], 7.7%; in assay [5], -2.2%; in [6], 56.6%. The inhibition is 5.87% in assay [7]; -2.1% in assay [8]; 11% in assay [9]; 11.9% in [10]; -4.92% in assay [11]; 35.3% in assay [12]. Moreover, the inhibition in [13] is 0.09%.
Turning to `N#Cc1c[nH]c2c(C(=O)N3CCN(CCc4ccc(F)cc4)CC3)cccc12`, the inhibition in assay [1] was 38.2%; in [2] it was 12.6%; in [3], 60.4%; in assay [4], -9.78%; in assay [5], 35.6%; in assay [7], -0.43%. The inhibition in [8] was 27.3%; in [9], 71.6%; in [10], 37.8%; in assay [12], 87.6%; in assay [13], -6.2%.
As to `Cc1ccccc1N1CCN(S(=O)(=O)C[C@]23CC[C@H](C[C@@H]2NC(=O)[C@@H](N)CCS(C)(=O)=O)C3(C)C)CC1`, the inhibition in [1] is 14.7%; in [2], -3.77%; in [3] it was -9.42%; in [5], 0.75%; in [6], -1.05%; in assay [7], -8.2%. For the same compound, the inhibition in [8] was 19.7%; in assay [10], 0.91%; in assay [12], 89.9%; in assay [13] it was 11.2%.
`CC(C)[C@H](CO)Nc1nc(Nc2cccc(Cl)c2)c2ncn(C(C)C)c2n1`: the inhibition in assay [1] is 28.4%; in assay [2] it was 60.9%; in assay [3] it was 3.66%; in [4], 21.1%; in assay [5], 29.9%; in [6], 76.5%. Further, the inhibition in [9] is 54.1%; in [10], 52.3%; in assay [12], 14.4%; in [13] it was 28.1%.
For the compound `Cc1ccc2c(c1)c1c(n2CCc2ccc(C)nc2)CCN(C)C1`, the inhibition in [1] was 73.6%; in assay [2], 94.8%; in assay [3] it was -8.68%; in assay [4] it was -2.89%; in assay [6] it was 11.9%; in assay [7], 16.2%. The inhibition in assay [8] was 56.9%; in assay [9] it was -7.44%; in assay [10] it was 90.6%; in assay [11] it was 5.78%; in assay [12], 71.7%; in assay [13], 91.7%.
With `CCc1nn(CCCN2CCN(c3cccc(Cl)c3)CC2)c(=O)n1CCOc1ccccc1`, the inhibition was 95.3% in assay [1]; 73.3% in assay [2]; 84.9% in assay [3]; 30.8% in assay [4]; 30.7% in assay [5]; 64.2% in assay [6]. The inhibition in [7] is -2.65%; in assay [8] it was -4.17%; in assay [9], 85.1%; in [10], 74.7%; in assay [12], 1.48%; in [13], 103%.
For the compound `Cc1nn(C)c(C)c1-c1cccc2c1CC[C@H](N(C)C)C2`, the inhibition in assay [1] was 45.4%; in assay [2], 87.1%; in [3] it was 3.62%; in assay [4], 69.2%; in assay [8], 47.5%; in assay [9] it was -2.38%. Moreover, the inhibition is -8.86% in assay [10], 5.06% in assay [11], 102% in [12] and 92.2% in assay [13].
As to `Cc1cc(C)cc(-c2cnc3cc(Cl)c(-c4cccc(O)c4)cc3c2OCCCN)c1`, the inhibition was 68% in assay [1]; 96.4% in [2]; 48.9% in [3]; 3.7% in [4]; 19.6% in assay [5]; 79.5% in [6]. The inhibition was 10.6% in assay [7]; 54.4% in assay [8]; 59.5% in assay [9]; 59% in assay [10]; 8.82% in assay [11]; 74.9% in assay [12]. Further, in assay [13], the inhibition was 25.7%.
Turning to `CCc1cc2c(cc1CC)CC(NC[C@H](O)c1ccc(O)c3[nH]c(=O)ccc13)C2`, the inhibition in [1] was 30%; in assay [2] it was 6.33%; in assay [3], 52.9%; in assay [4] it was 37.8%; in assay [5] it was 68%; in assay [8], -6.64%. For the same compound, the inhibition in assay [9] was 84.6%; in assay [11], 17.9%; in assay [12], -7.63%; in assay [13], 38.5%.
For the compound `Cc1cc([C@@H](C)Nc2cccc(-c3cc(C)c(C(=O)N[C@@H](C)C(=O)O)c(C)c3)c2)ccc1Cl`, the inhibition is -1.32% in [1]; 11.6% in assay [2]; -8.16% in [3]; 62.7% in assay [6]; 10% in assay [7]; 5.92% in assay [8]. Moreover, the inhibition in assay [9] is 14.9%; in assay [10], -2.64%; in assay [11], 7.41%; in [12], 20%; in [13] it was 24.6%; in [14], 2.88%.
